Paper PMC12884720, “Gabpα‐Pparγ Complex Determines Glycolytic Capacity and Lactic Acid Homeostasis in Brown Fat” (Advanced Science, 2025)
Residues, ends and D or L forms follow the SMILES beside them. *: point of attachment. FITC = O=C1OC2(c3ccc(O)cc3Oc3cc(O)ccc32)c2ccc(NC(=S)*)cc21

Assays:
BAT from wild‐type mice = assay: H&E staining and Ucp1 immunostaining of BAT; assay type: in vivo, wild‐type C57BL/6J mice; conditions: GPCBi 5.5 mg kg^−1 orthotopically into BAT
Protocol: (§1) The mouse experiments were approved by the Institutional Animal Care and Use Committee of the Institute of Model Animals of Tongji Hospital, Huazhong University of Science and Technology, and were performed in compliance with all relevant ethical regulations (approval number: TJH‐202110044). Unless otherwise noted, the mice were housed in a pathogen‐free and climate‐controlled environment (22–25 °C, 40‐60% humidity) and were given free access to food and water on a 12 h light/dark cycle. Wild‐type C57BL/6J mice were obtained from Beijing Huafukang Bioscience Co., Ltd. (Beijing, China). Gabpa ^flox/flox , Adipoq^Cre , and Ucp1^Cre mice were purchased from Cyagen Biosciences, Inc. (Guangzhou, China). For GPCBi treatment, wild‐type mice were orthotopically injected GPCBi (FITC‐[…]; 5.5 mg kg^−1) or scramble peptide (FITC‐[…]; 5.5 mg kg^−1) into the BAT at room temperature for one week. […] For cold exposure, the mice were caged individually and exposed to a temperature of 10 or 4 °C. The mice were euthanized by CO2 inhalation. For studies with specific diets, five‐week‐old male Gabpα ^Adipo KI mice and their respective littermate control mice were fed a HFD (D12492, Research Diets; 60 kcal% fat, 20 kcal% carbohydrates, and 20 kcal% protein; Medicience Ltd., Jiangsu, China) at ambient temperature. The food was changed every week. Body weight was measured every week, and tissue weights were measured at the time of euthanasia.
For haematoxylin and eosin (H&E) staining, adipose tissues and the liver were fixed in 4% paraformaldehyde overnight at 4 °C and then dehydrated in 70% ethanol. The tissues were subsequently embedded in paraffin, sectioned at a thickness of 5 µm, and stained with H&E or immunostained with a Ucp1 antibody (Abcam, UK, Cat# ab234430, 1:500 dilution) following the standard protocol. For Oil Red O staining, frozen liver sections were stained with Oil Red O solution for 10 min and then counterstained with haematoxylin for 20 s. Images of the tissue samples were captured via an Olympus BX53 Orthomicroscope. […]

Gabpα‐Pparγ complex = assay: SPR competitive binding assay, GPCBi on Gabpα and Pparγ interaction; conditions: equal concentration of Gabpα and different concentrations of GPCBi over immobilized Pparγ (Figure 4b)
Protocol: SPR analysis was performed using a Biacore T200 system (Cytiva) equipped with a Series S Sensor Chip CM5. Briefly, the ligand Pparγ protein was immobilized to the CM5 Chip via covalent bonds to the amino acid residues in immobilization buffer. Subsequently, different concentrations of Gabpα were diluted in the analyte buffer and were injected into the flowing channel to allow interaction between Pparγ and Gabpα. For a competitive binding assay, an equal concentration of Gabpα and different concentrations of GPCBi were injected into the flowing channel to examine the effect of the interaction between Pparγ and Gabpα. The interacting phase included 120 s of the association phase and 200 s of the dissociation phase. The data were analyzed in a Biacore T200 Evaluation Software (Cytiva).

[1] = system: differentiated iBAT‐SVF cells; assay: Relative mRNA and protein levels in differentiated iBAT-SVF cells; assay type: cell-based, C57BL/6 mice; conditions: GPCBi 5 µM
Protocol: Interscapular BAT‐SVF cells were obtained from eight‐week‐old male C57BL/6 mice. […] The tissue homogenates were filtered through a 70 µm cell strainer and centrifuged at 1000 rpm for 5 min. The cell pellet was resuspended in DMEM supplemented with 10% FBS (Sigma–Aldrich) and 1% penicillin/streptomycin (P/S) at 37 °C with 5% CO2. The next day, BAT‐SVF cells were immortalized with the SV40 large T antigen according to a published protocol.^[ [32] ^] […] After 48 h, the induction medium was replaced with a maintenance cocktail (5 µg mL^−1 insulin, 1 nM triiodo‐L‐thyronine, and 1 µM rosiglitazone) until 6 to 8 days after the induction of differentiation.
Reverse transcription of cDNA was completed via the use of 1 µg of RNA with HiScript II Q RT SuperMix for real‐time quantitative PCR (qPCR) (Vazyme Biotech, Nanjing, China, Cat# R222) according to the provided protocols. qPCR was performed with a real‐time PCR system on a QuantStudio1 (Applied Biosystems) using Taq Pro Universal SYBR qPCR Master Mix (Vazyme Biotech., Nanjing, China, Cat# Q712‐02). Relative transcript levels were calculated via the comparative C T method; 36b4 was used as the internal control for cells, whereas Hprt was used as the internal control for tissues. The primer sequences are listed in Table S1 (Supporting Information). The mRNAs from the BAT of control and Gabpα ^Ucp1 KO mice were extracted and subjected to commercial RNA‐seq (BGI Genomics Co., Ltd.) for further DEG and KEGG pathway enrichment analysis. In detail, RNA quality was examined with Fragment (Agilent). High‐quality RNA (RIN > 8.0) was used to library construction. RNA‐seq was performed at BGI Genomics (China) using the Illumina NovaSeq 6000 platform. Clean reads were aligned to the mouse reference genome (GRCm39) using Bowtie2, and transcript quantification was performed with RSEM. […] The RNA‐seq data generated in this study have been deposited in the National Center for Biotechnology Information Sequence Read Archive database under accession code PRJNA1358056.
Cells and tissues were lysed in RIPA lysis buffer (Beyotime, Shanghai, China, Cat# P0013B) containing a protease inhibitor cocktail (MedChem Express, NJ, USA, Cat# HY‐K0010) according to the manufacturer's protocol. Equal amounts of protein were separated on SDS‒PAGE gels and transferred to PVDF membranes (Millipore). The PVDF membranes were blocked in 5% skim milk for 1 h at room temperature and then incubated with primary antibody overnight at 4 °C. The membranes were washed three times with TBST and then incubated with HRP‐conjugated secondary antibodies for 1 h at room temperature. After washing three times, the Western blots were imaged via an enhanced chemiluminescence system.

wild‐type mice = assay: Cold challenge: rectal core body temperature and survival; assay type: in vivo, wild‐type C57BL/6J mice; conditions: 4 °C
Protocol: as §1, with “For studies with specific diets, five‐week‐old male Gabpα ^Adipo KI mice and their respective littermate control mice were fed a HFD (D12492, Research Diets; 60 kcal% fat, 20 kcal% carbohydrates, and 20 kcal% protein; Medicience Ltd., Jiangsu, China) at ambient temperature. The food was changed every week.” left out

SMILES: CC[C@H](C)[C@H](NC(=O)[C@H](CCCNC(=N)N)NC(=O)[C@H](CS)NC(=O)[C@H](CC(N)=O)NC(=O)[C@H](CC(C)C)NC(=O)[C@H](CC(=O)O)NC(=O)[C@H](CS)NC(=O)[C@H](CCCNC(=N)N)NC(=O)[C@H](CC(=O)O)NC(=O)[C@H](Cc1ccc(O)cc1)NC(=O)[C@@H](NC(=O)[C@H](CC(C)C)NC(=O)[C@H](CCCCN)NC(=O)[C@H](CC(C)C)NC(=O)[C@H](CCCNC(=N)N)NC(=O)[C@@H](NC(=O)[C@@H](NC(=O)[C@H](CCCNC(=N)N)NC(=O)[C@H](CCCNC(=N)N)NC(=O)[C@H](CCCNC(=N)N)NC(=O)[C@H](CCCNC(=N)N)NC(=O)[C@H](CCCNC(=N)N)NC(=O)[C@H](CCC(N)=O)NC(=O)[C@H](CCCNC(=N)N)NC(=O)[C@H](CCCNC(=N)N)NC(=O)[C@H](CCCCN)NC(=O)[C@H](CCCCN)NC(=O)[C@H](CCCNC(=N)N)NC(=O)CNC(=O)[C@H](Cc1ccc(O)cc1)NC(=S)Nc1ccc2c(c1)C(=O)OC21c2ccc(O)cc2Oc2cc(O)ccc21)[C@@H](C)O)[C@@H](C)CC)[C@@H](C)CC)C(=O)N[C@@H](Cc1c[nH]cn1)C(=O)N[C@@H](CCCCN)C(=O)N[C@@H](CCCCN)C(=O)N[C@@H](CO)C(=O)N[C@@H](CCCNC(=N)N)C(=O)N[C@@H](CC(N)=O)C(=O)N[C@@H](CCCCN)C(=O)O [GPCBi] ({FITC}-YGRKKRRQRRRRRTIRLKLIYDRCDLNCRIHKKSRNK-OH; N-terminus and C-terminus assumed)
- lipid accumulation in BAT (BAT from wild‐type mice; H&E, 7 days (Figure 4i,j)): increased lipid accumulation
- Ucp1 abundance in BAT (BAT from wild‐type mice; Ucp1 immunostaining, 7 days (Figure 4i,k)): decreased Ucp1 abundance
- effect on Gabpα affinity toward Pparγ (Gabpα‐Pparγ complex): dose‐dependently attenuated this interaction
- expression of glycolytic and thermogenic genes ([1]; first 2 days of adipogenic differentiation (Figure 4e,f), mRNA n = 3): decreased the expression of glycolytic and thermogenic genes
- expression of adipogenic gene Adipoq ([1]; first 2 days of adipogenic differentiation (Figure 4e,f), n = 3): did not change
- expression of Ldh and Ucp1 in brown adipocytes ([1]; first 2 days of adipogenic differentiation (Figure 5m)): lower expression
- regulatory gene expression of the futile lipid cycle, differentiated iBAT‐SVF cells ([1]; first 2 days of adipogenic differentiation (Figure S5c)): substantially impaired
- thermogenic gene ucp1 in GPCBi‐treated brown adipocytes ([1]; first 2 days of adipogenic differentiation, without Enoblock (Figure 5p)): downregulated
- maintenance of core body temperature under acute cold stress (wild‐type mice; control n = 7, GPCBi n = 8 (Figure 4q)): struggled to maintain their core body temperatures
- mortality under acute cold stress (wild‐type mice; control n = 7, GPCBi n = 8 (Figure 4r)): increased mortality
